# Source: patent US11499981B2, “Methods of identifying modulators of SAMTOR-GATOR1 interaction and use of same to modulate mTORC1” (Whitehead Institute for Biomedical Research, priority 2017, dated 2022)
# Experiments:
# [1] = molecular target: T1, SAMTOR-GATOR1-KICSTOR complex (Homo sapiens, UniProt Q1RMZ1); assay: In vitro GATOR1-SAMTOR dissociation assay (immunopurified complex, immunoblotting); assay type: biochemical; conditions: for disruption of the interaction between SAMTOR and GATOR1 (FIG. 3D): 100 μM, added to FLAG-Depdc5 immunoprecipitates; for disruption of the interaction of SAMTOR with GATOR1-KICSTOR: added directly to the immunopurified complex kept at 4° C.
# T1 construct: FLAG-immunoprecipitates were prepared from the endogenously FLAG-tagged Depdc5 HEK-293T cells; endogenous in cells; host or cells: HEK-293T cells with endogenously FLAG-tagged Depdc5; anti-FLAG immunoprecipitate on beads
# T1 sequence (Q1RMZ1 1-405): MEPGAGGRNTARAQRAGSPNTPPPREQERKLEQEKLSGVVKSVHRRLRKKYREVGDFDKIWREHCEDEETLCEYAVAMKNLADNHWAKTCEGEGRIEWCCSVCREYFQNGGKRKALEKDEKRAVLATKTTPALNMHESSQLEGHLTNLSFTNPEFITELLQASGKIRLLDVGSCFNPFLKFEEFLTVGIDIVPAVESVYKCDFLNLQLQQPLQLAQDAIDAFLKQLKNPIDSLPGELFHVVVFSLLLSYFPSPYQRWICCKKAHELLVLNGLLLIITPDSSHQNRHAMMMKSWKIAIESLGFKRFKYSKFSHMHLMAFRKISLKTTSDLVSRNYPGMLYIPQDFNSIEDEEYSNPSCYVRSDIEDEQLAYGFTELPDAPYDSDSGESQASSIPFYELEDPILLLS
# Method: HEK-293T cells stably expressing endogenous FLAG-tagged Depdc5 were lysed and subjected to anti-FLAG immunoprecipitations as described above. The GATOR1-SAMTOR complexes immobilized on the FLAG beads were washed twice in lysis buffer with 250 mM NaCl, and then incubated for 25 minutes in 0.3 ml of cytosolic buffer (0.1% Triton, 40 mM HEPES pH7.4, 10 mM NaCl, 150 mM KCl, 2.5 mM MgCl2) with the indicated concentrations of SAM or SAH in the cold. The amount of GATOR1, SAMTOR, GATOR2, and KICSTOR that remained bound was assayed by SDS-PAGE and immunoblotting as described previously.
# human FLAG-SAMTOR = molecular target: T2, human FLAG-SAMTOR (Homo sapiens, UniProt Q1RMZ1); assay: Equilibrium [3H]SAM binding assay and competition binding assay with purified FLAG-SAMTOR
# T2 construct: made in house; host or cells: HEK-293F suspension cells, transient transfection; anti-FLAG IP, FLAG-peptide elution, size-exclusion chromatography
# T2 sequence (Q1RMZ1 1-405): T1 sequence (Q1RMZ1 1-405)
# Method: For radiolabelled SAM binding assays using FLAG-tagged wild-type SAMTOR (FIG. 3B), suspension HEK-293F cells were seeded at 2.5 million cells/ml, and the pRK5-FLAG-SAMTOR cDNA was transfected using polyethylenimine. 72-96 hours after transfection, cells were rinsed one time in cold PBS and lysed in 1% Triton lysis buffer (1% Triton, 40 mM Hepes pH 7.4, 2.5 mM MgCl2 and 1 tablet of EDTA-free protease inhibitor [Roche] per 25 ml buffer). Following anti-FLAG immunoprecipitation, the beads were washed 4 times with lysis buffer containing 500 mM NaCl and the protein was eluted in FLAG Elution Buffer (40 mM Hepes pH 7.4, 150 mM NaCl, 2.5 mM MgCl2 and 0.5 mg/ml FLAG peptide) for 1 hour at 4° C. […] Each sample was mixed well and then 15 μl aliquots were separately quantified using a TriCarb scintillation counter (Perkin Elmer). This process was repeated in pairs for each sample, to ensure similar incubation and wash times for all samples analyzed across different experiments. The affinities for SAM and SAH of human FLAG-SAMTOR were determined by first normalizing the bound [^3H]-labeled SAM concentrations across three separate binding assays performed with varying amounts of cold SAM or SAH. […]
# [2] = molecular target: T3, human FLAG-SAMTOR (SAMTOR, C7orf60; wild-type, FLAG-tagged, expressed in HEK-293F cells) (Homo sapiens, UniProt Q1RMZ1); assay: Radiolabelled SAM binding assay: competition of unlabeled SAH with [3H]SAM for purified FLAG-SAMTOR (FIG. 3B); conditions: 5 μM [3H]SAM competed with unlabeled SAH; 5 μg purified wild-type FLAG-SAMTOR on anti-FLAG beads, 1 h on ice, pH 7.4; Ki=IC50/(1+([3H]SAM)/Kd)
# T3 construct: made in house; host or cells: HEK-293F (suspension), transient transfection of pRK5-FLAG-SAMTOR; anti-FLAG purification and size-exclusion chromatography
# T3 sequence (Q1RMZ1 1-405): T1 sequence (Q1RMZ1 1-405)
# Excerpt: FIGS. 3A-3G depict S-adenosylmethionine binds SAMTOR to disrupt its interaction with GATOR1 and KICSTOR. FIG. 3A provides a schematic of the human SAMTOR protein indicating the Class I Rossmann fold methyltransferase domain. Shown is an alignment of partial sequences of this domain from SAMTOR in indicated species. Amino acid positions are colored from white to blue in order of increasing sequence similarity. Orange dots denote the G172 and D190 residues of human SAMTOR. […] FLAG-SAMTOR protein prepared from HEK-293F cells transiently expressing the FLAG-SAMTOR cDNA was further purified by size-exclusion chromatography. The protein was analyzed by SDS-PAGE followed by Coomassie blue staining. Binding assays were performed with purified FLAG-SAMTOR incubated with 5 μM [^3H]SAM and indicated concentrations of unlabeled SAM or SAH. Values for each point are mean±SD of three technical replicates from one representative experiment. The experiment was performed twice. […] FLAG-immunoprecipitates and cell lysates were analyzed by immunoblotting for the levels of the indicated proteins. […] The experiment was performed and analyzed as in (FIG. 3C). […] HA-immunoprecipitates and cell lysates were analyzed as (FIG. 3C). […] FLAG-immunoprecipitates and cell lysates were analyzed by immunoblotting for the phosphorylation states and levels of the indicated proteins. […]
# [3] = molecular target: T4, SAMTOR-GATOR1-KICSTOR interaction in HEK-293T cells (Homo sapiens, UniProt Q1RMZ1); assay: Co-immunoprecipitation of GATOR1 with HA-SAMTOR from methionine-starved and restimulated cells; assay type: cell-based; conditions: HEK-293T starved of methionine 2 hours
# T4 construct: expressed in transfected cells; host or cells: HEK-293T cells transiently transfected with HA-SAMTOR in pRK5 (25 ng)
# T4 sequence (Q1RMZ1 1-405): T1 sequence (Q1RMZ1 1-405)
# Method: Cell volumes were determined by Coulter counter and used to calculate whole cell concentrations. […] HA-immunoprecipitates and cell lysates were analyzed by immunoblotting for the levels of the indicated proteins. […] Cell lysates were analyzed by immunoblotting for the phosphorylation states and the levels of the indicated proteins. […] Wild-type or SAMTOR-deficient HEK-293T cells were starved for the indicated amino acid for 2 hours. Cell lysates were analyzed by immunoblotting for the phosphorylation states and the levels of the indicated proteins. […] SAMTOR-deficient or control HEK-293T cells were treated as indicated for 2 hours prior to processing for immunofluorescence detection of mTOR and the lysosomal marker LAMP2. […] FLAG-immunoprecipitates and cell lysates were analyzed by immunoblotting for the phosphorylation states and the levels of the indicated proteins. […] Cell lysates were analyzed by immunoblotting for the phosphorylation states and the levels of the indicated proteins. […] Cell lysates were analyzed by immunoblotting for the phosphorylation states and the levels of the indicated proteins.
# For anti-FLAG immunoprecipitations, anti-FLAG M2 Affinity Gel (SIGMA A2220) was washed with lysis buffer three times then resuspended to a ratio of 50:50 affinity gel to lysis buffer. […] Denatured samples were resolved by 8%-12% SDS-PAGE, and analyzed by immunoblotting.
# mTORC1 = mTORC1 signaling in methionine-starved cells (immunoblotting of mTORC1 substrate phosphorylation); assay type: cell-based, human; conditions: for activation of mTORC1 after loss of MAT2A: MAT2A dox-off HEK-293T cells, 30 ng/mL doxycycline for 50 hours
# Method: Cell volumes were determined by Coulter counter and used to calculate whole cell concentrations. […] HA-immunoprecipitates and cell lysates were analyzed by immunoblotting for the levels of the indicated proteins. […] Cell lysates were analyzed by immunoblotting for the phosphorylation states and the levels of the indicated proteins. […] Wild-type or SAMTOR-deficient HEK-293T cells were starved for the indicated amino acid for 2 hours. Cell lysates were analyzed by immunoblotting for the phosphorylation states and the levels of the indicated proteins. […] SAMTOR-deficient or control HEK-293T cells were treated as indicated for 2 hours prior to processing for immunofluorescence detection of mTOR and the lysosomal marker LAMP2. In all images, insets represent selected fields magnified 3.07× as well as their overlays. Scale bar represents 10 μm. […] SAMTOR-null cells were co-transfected with a cDNA for FLAG-S6K1 along with the indicated HA-tagged cDNAs and cells were treated as in (FIG. 4C) prior to preparing lysates and FLAG-immunoprecipitates. FLAG-immunoprecipitates and cell lysates were analyzed by immunoblotting for the phosphorylation states and the levels of the indicated proteins. […] S2R+ cells were transfected with dsRNAs targeting the indicated mRNAs and starved for 1 hour for the indicated amino acid. Cell lysates were analyzed by immunoblotting for the phosphorylation states and the levels of the indicated proteins. […] MAT2A dox-off HEK-293T cells were treated with 30 ng/mL doxycycline for 50 hours prior to starving them as in (FIG. 4C). Cell lysates were analyzed by immunoblotting for the phosphorylation states and the levels of the indicated proteins.
# Cells were rinsed with cold PBS and lysed in lysis buffer (1% Triton, 10 mM β-glycerol phosphate, 10 mM pyrophosphate, 40 mM Hepes pH 7.4, 2.5 mM MgCl2 and 1 tablet of EDTA-free protease inhibitor [Roche] (per 25 ml buffer)). […] Cell lysate samples were prepared by addition of 5× sample buffer (0.242 M Tris, 10% SDS, 25% glycerol, 0.5 M DTT, and bromophenol blue), resolved by 8%-16% SDS-PAGE, and analyzed by immunoblotting.
binding to SAMTOR in competition binding assay (human FLAG-SAMTOR; 5 μM [3H]SAM with unlabeled competitor),Ki [2] [µM],SMILES,disruption of the interaction between SAMTOR and GATOR1 (FIG. 3D) [1],disruption of the interaction of SAMTOR with GATOR1-KICSTOR [1],SAMTOR-GATOR1-KICSTOR interaction in cells after re-addition ([3]; restimulated 20 minutes with 1 mM SAM),"Kd (human FLAG-SAMTOR; 5 μM [3H]SAM with unlabeled SAM, read-out: dissociation constant of SAM for SAMTOR) [µM]",activation of mTORC1 after loss of MAT2A (mTORC1),mTORC1 signaling after addition to methionine-starved cells (mTORC1; methionine-starved HEK-293T cells (FIG. 4H)),SAMTOR-GATOR1-KICSTOR interaction in cells after re-addition ([3]; restimulated 20 minutes with 100 μM methionine)
can also bind,~4.6,"Nc1ncnc2c1ncn2[C@@H]1O[C@H](CSCC[C@H](N)C(=O)O)[C@@H](O)[C@H]1O [SAH, S-adenosylhomocysteine]",disrupt the interaction,disrupted the interaction,–,–,–,–,–
–,–,"C[S+](CC[C@H](N)C(=O)[O-])C[C@H]1O[C@@H](n2cnc3c(N)ncnc32)[C@H](O)[C@@H]1O (stereo partly drawn) [SAM, S-adenosylmethionine]",disrupt the interaction,disrupted the interaction,reduced the interaction to baseline levels,~7,largely intact,reactivated mTORC1 signaling,–
–,–,CSCC[C@H](N)C(=O)O [methionine],–,–,–,–,greatly attenuated,–,reduced the interaction to baseline levels
